Source: patent US11242349B2, “Ethynyl derivatives” (Hoffmann-La Roche Inc., priority 2016, dated 2022)
Like-named read-outs stand apart in the source and are kept apart here.

Legend:
[1] = biological target: recombinant human mGlu4 expressed in HEK293 cells (Homo sapiens (Human), UniProt Q14833); experiment: Ca2+ mobilization in vitro assay, mGlu4 PAM; format: cell-based; conditions: for EC50: HEK293 cells, human mGlu4, with EC20 of L-AP4; for Eff. (%): maximal response in % of maximal stimulatory effect of saturating L-AP4
recombinant human mGlu4 expressed in HEK293 cells, sequence (Q14833 33-912): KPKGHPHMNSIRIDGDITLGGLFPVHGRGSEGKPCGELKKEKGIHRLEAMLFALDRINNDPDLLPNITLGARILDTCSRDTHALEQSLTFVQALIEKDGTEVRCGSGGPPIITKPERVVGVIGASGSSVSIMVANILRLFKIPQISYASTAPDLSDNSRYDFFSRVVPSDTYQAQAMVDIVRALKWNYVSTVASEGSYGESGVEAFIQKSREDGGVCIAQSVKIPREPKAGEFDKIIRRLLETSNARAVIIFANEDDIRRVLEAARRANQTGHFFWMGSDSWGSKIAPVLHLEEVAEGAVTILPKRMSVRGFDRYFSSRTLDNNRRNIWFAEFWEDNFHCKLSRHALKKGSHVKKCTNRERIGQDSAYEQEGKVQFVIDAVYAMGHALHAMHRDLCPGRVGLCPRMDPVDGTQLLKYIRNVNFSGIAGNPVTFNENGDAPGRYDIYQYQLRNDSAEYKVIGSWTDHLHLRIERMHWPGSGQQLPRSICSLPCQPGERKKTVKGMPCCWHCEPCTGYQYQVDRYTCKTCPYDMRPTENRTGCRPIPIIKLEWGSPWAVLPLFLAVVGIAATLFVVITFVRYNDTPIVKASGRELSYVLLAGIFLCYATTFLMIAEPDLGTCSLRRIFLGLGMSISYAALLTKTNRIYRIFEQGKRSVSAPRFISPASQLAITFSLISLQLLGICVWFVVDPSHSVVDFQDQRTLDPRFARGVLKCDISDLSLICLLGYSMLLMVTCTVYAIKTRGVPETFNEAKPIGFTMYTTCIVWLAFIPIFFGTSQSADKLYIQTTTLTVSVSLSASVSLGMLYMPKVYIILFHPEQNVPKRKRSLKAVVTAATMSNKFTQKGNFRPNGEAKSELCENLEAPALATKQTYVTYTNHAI
Experimental: Determination of EC50 values using a Ca2+ mobilization in vitro assay on recombinant human mGlu4 expressed in HEK293 cells:
A monoclonal HEK-293 cell line stably transfected with a cDNA encoding for the human mGlu4 receptor was generated; for the work with mGlu4 Positive Allosteric Modulators (PAMs), a cell line with low receptor expression levels and low constitutive receptor activity was selected to allow the differentiation of agonistic versus PAM activity. Cells were cultured according to standard protocols (Freshney, 2000) in Dulbecco's Modified Eagle Medium with high glucose supplemented with 1 mM glutamine, 10% (vol/vol) heat-inactivated bovine calf serum, Penicillin/Streptomycin, 50 μg/ml hygromycin and 15 μg/ml blasticidin (all cell culture reagents and antibiotics from Invitrogen, Basel, Switzerland). About 24 hrs before an experiment, 5×10^4 cells/well were seeded in poly-D-lysine coated, black/clear-bottomed 96-well plates. The cells were loaded with 2.5 μM Fluo-4AM in loading buffer (1×HBSS, 20 mM HEPES) for 1 hr at 37° C. and washed five times with loading buffer. The cells were transferred into a Functional Drug Screening System 7000 (Hamamatsu, Paris, France), and 11 half logarithmic serial dilutions of test compound at 37° C. were added and the cells were incubated for 10-30 min. with on-line recording of fluorescence. […] Graphs were plotted with the % maximal stimulatory using XLfit, a curve fitting program that iteratively plots the data using Levenburg Marquardt algorithm. The single site competition analysis equation used was y=A+((B-A)/(1+((x/C)D))), where y is the % maximal stimulatory effect, A is the minimum y, B is the maximum y, C is the EC50, x is the log 10 of the concentration of the competing compound and D is the slope of the curve (the Hill Coefficient).
FIG. 1: Illustration of the experimental outline for mGlu4 PAM Ca2+ mobilization screening assay and the determination of EC50 and % Emax values.

[2] = mice; preclinical model of anxiety; cited from earlier work
[3] = mice; preclinical model of anxiety; cited from earlier work; remark: listed apart in the source
[4] = cited from earlier work
[5] = mice treated with MPTP; cited from earlier work

For `CCn1ncc2c1CCC[C@]21CC(=O)N(c2c(F)cc(C#Cc3ccccc3)cc2F)C(=O)N1C` [Example 2, (4S)-3′-[2,6-Difluoro-4-(2-phenylethynyl)phenyl]-1-ethyl-1′-methyl-spiro[6,7-dihydro-5H-indazole-4,6′-hexahydropyrimidine]-2′,4′-dione], which EC50 [1] is on record?
Its EC50 is 85 nM.

What about the “Eff. (%)” value [1] of the same compound?
Its value is 136%.

With `CCn1cc2c(n1)CCC[C@]21CC(=O)N(c2c(F)cc(C#Cc3ccccc3)cc2F)C(=O)N1C` [Example 1, (4S)-3′-[2,6-Difluoro-4-(2-phenylethynyl)phenyl]-2-ethyl-1′-methyl-spiro[6,7-dihydro-5H-indazole-4,6′-hexahydropyrimidine]-2′,4′-dione] as the compound, how does the EC50 [1] read?
The EC50 was 77 nM.

What about the “Eff. (%)” value [1] of the same compound?
Its value is 132%.

With `Cc1ccnc(Nc2nc(-c3cn[nH]c3)c(C)s2)n1` [ADX88178] as the compound, how does the “activity in marble burying test” value [2] read?
The value was “active”.

And the “activity in EPM” value [3]?
Its value is “active”.

What about the “profile in rat EPM test” value ([4]; rat, after oral dosing) of the same compound?
Its value is “anxiolytic-like profile”.

What about the “activity in EPM” value ([4]; rats, preclinical model of anxiety) of the same compound?
Its value is “active”.

Which nigrostriatal degeneration [5] does the source give for `O=C(Nc1ccccc1)C12CC1/C(=N\O)c1ccccc1O2` (single isomer, unassigned; (-)) [(−)-PHCCC] here?
The nigrostriatal degeneration was “reduced nigrostriatal degeneration”.
